Consider 2 molecules from patent US20120190703A1, “SALTS OF 13A-(S)DESOXYTYLOPHORININE, PREPARATION METHODS AND PHARMACEUTICAL COMPOSITIONS AND USES THEREOF” (priority 2009, published 2012).

Where two headings read alike, the source gives them in different places. Marks after values point to notes of the source that are not given here.

For orientation: AUC(0-inf) means total exposure, with the tail of the curve extrapolated. Read a high AUC(0-inf) as more exposure. By AUC(0-t) is commonly meant the area under the concentration-time curve up to a stated or last time point. Lower therefore signals low exposure. Broadly, the Cmax is the peak of the concentration-time curve. In general, MRT inf refers to the average time that molecules of a dose stay in the body. Usually MRT last stands for the average time that molecules of a dose stay in the body. In general, Tmax refers to the time at which the peak concentration occurs. As usually defined, the solubility is the concentration that dissolves in the medium under given conditions. Higher therefore signals a readily soluble substance. Usually IC50 stands for the concentration at which inhibition is half-maximal.

The test system of data set [1] is H22 tumor-bearing mice. The note with it: intragastric once daily. An excerpt:
To determine the pharmacodynamic characters of 13a-(S)-deoxytylophorinine and its salts, the impact of these compounds to the tumor growth in H22 tumor-bearing mice was surveyed.
Male Kunming mice were obtained from the Laboratory Animal Center, Academy of Military Medical Science. Body weight 18˜22 g. 6 animals per group, totally 10 groups, 60 animals.
(+)-13a-(S)-deoxytylophorinine, (+)-13a-(S)-deoxytylophorinine Tartrate, (+)-13a-(S)-deoxytylophorinine Maleate, (+)-13a-(S)-deoxytylophorinine Citrate, Cytoxane (CTX) as positive control.
(+)-13a-(S)-deoxytylophorinine was administered at high dose (5 mg/kg) and low dose (2.5 mg/kg). Three (+)-13a-(S)-deoxytylophorinine salts were administered at high dose and low dose as equal moles with their prototype (Tartrate: 7.05 mg/kg, 3.53 mg/kg; Malate: 6.60 mg/kg, 3.30 mg/kg; Citrate: 7.90 mg/kg, 3.95 mg/kg).
Animals were reared in SPF grade circumstance to be observed for 24 h. The tumor cells liquid which resuscitated in abdominal cavity of KM mice was diluted with aseptic normal saline at 1:3 ratio. The resulting liquid was inoculated subcutaneously at forelimb with 0.2 mL every animal. After the injection over, the animals were divided to […] with 6 animals per group.
Four experimental samples were intragastric administered once daily 24 h after inoculation. The positive control CTX was intraperitoneal injected once daily. The animal body weight was recorded every day.

Data set [2] is described as follows: Solubility in water. Format: physicochemical.
The test system of data set [3] is mice Lewis lung cancer. As to conditions: background art; cited from earlier work.
The conditions of data set [4]: preliminary toxic experiments, background art; cited from earlier work.
A short description of data set [5]: Plasma pharmacokinetics after oral administration in mice. As to conditions: plasma. On the procedure:
To determine the pharmacokinetic characters of 13a-(S)-deoxytylophorinine and its salts, the studies about plasma pharmacokinetics and the character of distribution in brain were pursued.
Male ICR mice. Body weight 18˜22 g.
(+)-13a-(S)-deoxytylophorinine Tartrate, (+)-13a-(S)-deoxytylophorinine Maleate, (+)-13a-(S)-deoxytylophorinine Citrate. All were dissolved in distilled water as 0.6 mg/ml solution before experiment progressed.
72 mice were divided to 3 groups with 24 animals per group, fasting for 16 h and drinking water freely. […] Plasma was isolated by centrifugalization. After the salts were administered orally, the brain tissues of mice were collected at 5 min, 15 min, 2 h time points. 25% tissue homogenate was prepared with normal saline addition. 200 μL of homogenate and plasma were added isovolumic MeCN to precipitate protein. 5 μL of clear supernatant was analyzed by LC/MS/MS.
(+)-13a-(S)-deoxytylophorinine was dissolved in DMSO and then diluted with MeOH with concentration 10, 50, 100, 500, 1000 and 2500 ng/ml respectively. 10 μl of standard solutions of (+)-13a-(S)-deoxytylophorinine with different concentration above were added to 200 μl of blank plasma sequently to adjust the concentration to 0.5, 2.5, 5, 25, 50, 125 ng/ml respectively. MeCN was added to the solution to precipitate protein, and 5 μl of result clear supernatant was analyzed with LC/MS/MS. Linear regression was ran with the peak area of (+)-13a-(S)-deoxytylophorinine as ordinate and the concentrations as abscissa.

The subject of data set [6] is mice H22 liver cancer. As to conditions: background art; cited from earlier work.
For data set [7], the system named is Bel7402 human liver cancer cell. The data set can be described thus: Cytotoxic activity assay (MTT), Bel7402. Type of data set: cell-based. As to conditions: Bel-7402, 120 h, 5 days. The protocol:
(§1) To evaluate the in vitro antitumor activity of (+)-13a-(S)-Deoxytylophorinine salts in this invention, Cytotoxic activity assay (MTT) experiment was persued.
(§2) 1. Tumor cells at log phase were incubated on 96-well plates at a density of 1˜1.0×10^4 cells/ml, 100 μl/well. Cells were cultured for 24 h at 37° C. in a cell incubator with 5% CO2.
(§3) 2. The treatment cells were exposed to the tested agents at different concentrations and cultured for 5 days in a cell incubator with full humidity incubator.
(§4) 3. The incubation medium was removed, then 100 μl 0.04% MTT was added to each well and Cells were cultured for 4 hours under the same conditions.
(§5) 4. The incubation medium was removed, then 150 μl DMSO was added to each well, the absorbance at a reference wavelength of 450 nm and a test wavelength of 570 nm was read. Drug inhibitory rate was calculated.

Data set [8] concerns Hct8 human colon cancer cell. Briefly: Cytotoxic activity assay (MTT), Hct8. Type of data set: cell-based. As to conditions: HCT-8, 120 h, 5 days. The protocol:
as §1, §2, §3, §4, §5

[9] abbreviates: high dose × 7 d, equal moles: prototype 5.0, tartrate 7.05, maleate 6.60, citrate 7.90 mg/kg.
Where [10] appears, read: low dose × 7 d, equal moles: prototype 2.5, tartrate 3.53, maleate 3.30, citrate 3.95 mg/kg.

`COc1ccc2c3c(c4cc(OC)c(OC)cc4c2c1)CN1CCC[C@H]1C3` [(+)-13a-(S)-deoxytylophorinine, reference compound]: in data set [1] (setting [9]), the “Animal No. (Initial/Final)” value is given as 6/4, the “Body Weight(g) Final” value was 15.63 ± 2.16 g, the “Body Weight(g) Initial” value worked out at 23.50 ± 2.51 g⁻¹ and the “Inhibition (%)” value is reported as 74.02** %. The “Tumor Weight (g, mean ± SD)” value in data set [1] (setting [9]) is 0.30 ± 0.12 g. Also, in data set [1] (setting [10]), the “Animal No. (Initial/Final)” value was 6/6, the “Body Weight(g) Final” value amounted to 23.31 ± 2.14 g, the “Body Weight(g) Initial” value was found to be 23.00 ± 1.55 g⁻¹ and the “Inhibition (%)” value is on record as 42.79* %. Further, the “Tumor Weight (g, mean ± SD)” value in data set [1] (setting [10]) is 0.66 ± 0.21 g. Further, the Solubility in water result in data set [2] is listed as “Insoluble”. The “Solubility in water (words)” value in data set [2] (statement in text, listed as 13a-(S)-Deoxytylophorinine) was “insoluble in water”. Moreover, the “Solubility in water (words)” value in data set [2] (statement in text, listed as (+)-13a-(S)-Deoxytylophorinine) is “can not be dissolved in water”. Also, the “Anti-tumor proliferative activity, mice Lewis lung cancer” value in data set [3] is “notable anti-tumor proliferative activity”. Also, in data set [4], the “Toxicity in the liver and kidney” value was “not toxic in the liver and kidney”. The molecule also returned a t½z in data set [5] (6 mg/kg oral, mice, non-compartment model) of 26.4 min. In data set [5] (male, ICR, mouse, po, 6 mg/kg), this molecule displayed an AUC(0-inf) of 0.0337 µg·h/mL, an AUC(0-t) of 0.0333 µg·h/mL, a Cmax of 0.0415 µg/mL and an MRT inf of 48 min. In addition, in data set [5] (male, ICR, mouse, po, 6 mg/kg), the MRT last was determined as 46.2 min and the Tmax amounted to 15 min. Besides, in data set [6], the “Anti-tumor proliferative activity, mice H22 liver cancer” value is “notable anti-tumor proliferative activity”.
As for `CC(O)C(=O)O.COc1ccc2c3c(c4cc(OC)c(OC)cc4c2c1)CN1CCC[C@H]1C3` [Lactate, (+)-13a-(S)-deoxytylophorinine Lactate], the “Solubility in water (words)” value in data set [2] was “soluble in water”. The solubility in data set [2] (water) was found to be 120 mg/mL. Moreover, the figures for the IC50 in data set [7] and in data set [8] were 0.04 µM and 0.079 µM, respectively.
